The test concerns Juvenile shrimp. The test is described as follows: Carotenoid content of shrimp fed lutein-enriched Designer Diet (HPLC carotenoid analysis). The test is classed as in vivo. Also noted: AsX (astaxanthin) content of shrimp / Lutein content of shrimp / Other carotenoid content of shrimp / Total carotenoid content of shrimp / AsX (astaxanthin) content of shrimp, Mean / Lutein content of shrimp, Mean / Other carotenoid content of shrimp, Mean / Total carotenoid content of shrimp, Mean: unit not given here. Here is the method: Juvenile shrimp (1-5 g) were cultured in 20 L tanks (5-10 shrimp per tank) at 23 degrees Celsius using standard shrimp diets (e.g., Rangen 35/2.5 shrimp diet). Test diets were prepared containing a 2:1 mixture of Rangen control feed with Lutein (Twin Labs) for a final lutein concentration in the diet of 8g/kg diet. Shrimp were fed at 0.3% body weight 2×/day for the duration of the experiment.
Following 14 days of feeding, the shrimp were collected, frozen to −20° C. and lyophilized prior to chemical analysis.

Setting [1] is: Mean of lutein group, lutein 8g/kg diet, 14 days of feeding.
[2] abbreviates: individual sample, lutein 8g/kg diet, 14 days of feeding.

This note sets out measurements from patent publication US20060130162A1, “Shrimp and the production thereof” (priority 2002, published 2006).

Each structure is given as a SMILES string. Values joined by “and” are separate entries in the source; they are usually repeats but may differ in a detail not shown here. Equal values may be shown once.

Take `CC1=C[C@H](O)CC(C)(C)[C@H]1/C=C/C(C)=C/C=C/C(C)=C/C=C/C=C(C)/C=C/C=C(C)/C=C/C1=C(C)C[C@@H](O)CC1(C)C` [Lutein]: under setting [1], the “A/L (astaxanthin / lutein), Mean” value is 2.23; the “A/T (astaxanthin / total carotenoids), Mean” value is 53%; the “AsX (astaxanthin) content of shrimp, Mean” value turned out to be 6.24; the “L + O/T (lutein + other / total carotenoids), Mean” value was found to be 47%. In addition, under setting [1], the “L/T (lutein / total carotenoids), Mean” value was determined as 33%; the “Lutein content of shrimp, Mean” value worked out at 4.64; the “Other carotenoid content of shrimp, Mean” value is 1.62; the “Total carotenoid content of shrimp, Mean” value was 12.49. Also, the “Effect of lutein enrichment on shrimp appearance (FIG. 1)” value (before cooking and after cooking, compared with non-enriched shrimp) was “larger, more colorful”. In addition, under setting [2], the “A/L (astaxanthin / lutein)” value is 3.79 and 1.80 and 0.49 and 1.09 and 3.99; the “A/T (astaxanthin / total carotenoids)” value is 68% and 54% and 30% and 45% and 70%; the “AsX (astaxanthin) content of shrimp” value is 6.45 and 4.91 and 4.63 and 8.37 and 6.82; the “L + O/T (lutein + other / total carotenoids)” value is 32% and 46% and 70% and 55% and 30%. Under setting [2], the “L/T (lutein / total carotenoids)” value was 18% (2×) and 30% and 61% and 41%; the “Lutein content of shrimp” value was 1.70 and 2.73 and 9.39 and 7.65 and 1.71; the “Other carotenoid content of shrimp” value is 1.38 and 1.40 and 1.47 and 2.70 and 1.15; the “Total carotenoid content of shrimp” value was 9.53 and 9.04 and 15.49 and 18.72 and 9.68.
